Experimental data published in patent US20250108119A1, “NOVEL STEROID PAYLOADS, STEROID LINKERS, ADCs CONTAINING AND USE THEREOF” (IMMUNEXT, INC., priority 2021, published 2025).

Columns and labels:
FKBP5 = FKBP5 transcription in peritoneal resident macrophages (PRM) and spleen cells after in vivo treatment; design: species or system hVISTA mice; conditions: linker payloads as anti-VISTA conjugates
human PBMC = assay: Identification and quantification of released payload in human PBMC (MS); type: in vitro ADME; conditions: 4h, second study
Description: In all the following experiments, human PBMC, isolated from 1 healthy donor per study, were treated with exemplary anti-VISTA glucocorticoid conjugates according to the invention to allow identification and quantification of the released payload.
In the present experiments, after incubating PBMC with glucocorticoid (GC) antibody drug conjugates (ADC) for 4h, cells were harvested and assessed for both FKBP5 transcription induction via quantitative real time PCR (qPCR) as well as assessed via mass spectrometry (MS) for released payload identification and quantification.
Isolated PBMCs were resuspended in RPMI 1640 containing 10% human AB serum, 10 mM Hepes, 1× Penicillin/Streptomycin/L-Glutamine (assay media).
PBMCs from 1 donor were washed 2× in PBS, and then resuspended at 1×10^7/mL in media. […]
Remaining cells for each treatment were dived into aliquots representing 50 million cells per aliquot (for metabolite quantification only one aliquot per condition was generated). […]
Media was removed from each cell pellet with the media then set aside at −80C until it could be assessed for the concentration of effluxed payload. […]
Briefly, pre-chilled 70% ACN (extraction buffer) was added to the PBMC pellets for extraction. […] was injected onto the LCMS (Luna C18 (2) column, Thermo Scientific Q Exactive Hybrid Quadrupole Orbitrap) and resulting masses assessed. […]

## C[C@]12C=CC(=O)C=C1CC[C@@H]1[C@@H]2[C@@H](O)C[C@@]2(C)[C@H]1C[C@H]1O[C@@H](c3ccc(CC4CC5(C4)CC(NC(=O)[C@H](CCC(=O)O)NC(=O)CNC(=O)CBr)C5)cc3)O[C@]12C(=O)CO (stereo partly drawn) [INX V, (S)-4-(2-(2-bromoacetamido)acetamido)-5-((6-(4-((6aR,6bS,7S,8aS,8bS,10R,11aR,12aS,12bS)-7-hydroxy-8b-(2-hydroxyacetyl)-6a,8a-dimethyl-4-oxo-2,4,6a,6b,7,8,8a,8b,11a,12,12a,12b-dodecahydro-1H-naphtho[2′,1′:4,5]indeno[1,2-d][1,3]dioxol-10-yl)benzyl)spiro[3.3]heptan-2-yl)amino)-5-oxopentanoic acid]
FKBP5
  FKBP5 induction when dosed 14 days early (conclusions): still display significant potency when dosed 14 days early in regard to FKBP5 induction
Human PBMC
  released payload relative to INX P / INX231P (ng/ng): 235 x
